The record followed here is patent US5431924A, “Anti-inflammatory composition derived from emu oil” (priority 1990, dated 1995).

This test deals with male polyarthritic hooded rats. Nature of the test: Polyarthritis in male hooded rats: emu oil before and after uv exposure or benzoyl peroxide oxidation, with and without additives (Table 8). Particulars: for anti-inflammatory activity in the rat polyarthritic model: emu oil after exposure to strong ultraviolet light, with or without additive, in words.
The mark [1] stands for this setting: Table 8, dose/kg 2 ml (EO), 20 mg (R.A., B-Carotene), 25 mg (Trolox-DE).

Consider `CC1=C(/C=C/C(C)=C/C=C/C(C)=C/C=C/C=C(C)/C=C/C=C(C)/C=C/C2=C(C)CCCC2(C)C)C(C)(C)CCC1` [β-carotene], for which the “anti-inflammatory activity in the rat polyarthritic model” value is listed as “anti-inflammatory activity could be restored to the oil by the addition of retinyl acetate but not β-carotene”.

On to `CC(=O)OC/C=C(C)/C=C/C=C(C)/C=C/C1=C(C)CCCC1(C)C` [R.A. in E-Pg, Retinyl acetate], for which the “anti-inflammatory activity in the rat polyarthritic model” value is reported as “anti-inflammatory activity could be restored to the oil”. Under setting [1], the “Mean changes, Thickness Rear Paws, Days 12-16” value worked out at 0.16 mm; the “Mean changes, Thickness Rear Paws, Days 16-20” value was 0.30 mm; the “Mean changes, Thickness Tail, Days 12-16” value is listed as -0.12 mm; the “Mean changes, Thickness Tail, Days 16-20” value is -0.10 mm. For the same compound, under setting [1], the “Mean changes, Wt Chge, Days 12-16” value is reported as -02 g and the “Mean changes, Wt Chge, Days 16-20” value is “+10 g”.
